Measured values reported in US20100190794A1, “Herbicidally Active Composition” (BASF SE, priority 2007, published 2010).

- melting point: 175 °C
Structure (SMILES): CN1C(=O)C(Cc2ccccc2)N(C)C(=O)C1=Cc1c(C#N)ccc(F)c1F (stereo not shown) [Example 15, 2-[5-Benzyl-1,4-dimethyl-3,6-dioxopiperazin-2-ylidenemethyl]-3,4-difluoro-benzonitrile]
